According to BindingDB's records for doi:10.1021/jm020865i (Departement D'Ingenierie Et D'Etudes Des Proteines, 2002):
*1 amine or outer side, *2 acyl side, *3 side chain or, on linkers, in order; H or OH if unused. Where a SMILES comes first, the peptide text is derived from it. The star is where a group is joined. pNA = O=[N+]([O-])c1ccc(N*)cc1; Suc = O=C(CCC(=O)[*:2])[*:1]

Columns and labels:
[1] = target: Peptidyl-prolyl cis-trans isomerase A, cyclophilin A (Homo sapiens) (UniProt P62937); assay: The compound was evaluated for its binding affinity against Human Cyclophilin hCyp-18 Peptidyl-prolyl isomerase
Chain of Peptidyl-prolyl cis-trans isomerase A, cyclophilin A (Homo sapiens) (P62937 whole entry, looked up): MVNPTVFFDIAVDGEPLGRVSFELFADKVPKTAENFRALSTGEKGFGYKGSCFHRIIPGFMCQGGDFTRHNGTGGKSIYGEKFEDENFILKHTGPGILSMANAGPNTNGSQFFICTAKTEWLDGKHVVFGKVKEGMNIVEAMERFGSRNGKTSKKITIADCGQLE

[2] = target: Peptidyl-prolyl cis-trans isomerase A, cyclophilin A (Homo sapiens) (UniProt P62937); assay: Inhibitory activity against Human Cyclophilin hCyp-18 Peptidyl-prolyl isomerase by using the standard trypsin-coupled PPIase (peptidyl-prolyl isomerases) assay
[3] = target: Peptidyl-prolyl cis-trans isomerase A, cyclophilin A (Homo sapiens) (UniProt P62937); assay: The compound was evaluated for its binding affinity against Human Cyclophilin hCyp-18 Peptidyl-prolyl isomerase; remark: listed apart in the source

Kd [1] [µM] | IC50 [2] [µM] | Kd [3] [µM] | Compound
20 | 15 |  | CCOP(=O)(CNC(=O)[C@H](C)NC(=O)CCC(=O)O)N1CCCC1C(=O)N[C@@H](Cc1ccccc1)C(=O)Nc1ccc([N+](=O)[O-])cc1 (some centres not stated) [N-{1-[(Ethoxy-{2-[1-(4-nitro-phenylcarbamoyl)-2-phenyl-ethylcarbamoyl]-pyrrolidin-1-yl}-phosphinoylmethyl)-carbamoyl]-ethyl}-succinamic acid]
79 |  |  | COC(=O)Cc1ccc(NC(=O)[C@H](Cc2ccccc2)NC(=O)C2CCCN2P(=O)(O)CNC(=O)[C@H](C)NC(C)=O)cc1 (some centres not stated) [[(2-Acetylamino-propionylamino)-methyl]-{2-[1-(4-methoxycarbonylmethyl-phenylcarbamoyl)-2-phenyl-ethylcarbamoyl]-pyrrolidin-1-yl}-phosphinic acid anion]
200 |  |  | CCOP(=O)(CNC(=O)[C@H](C)NC(C)=O)N1CCCC1C(=O)N[C@H](CNc1ccc([N+](=O)[O-])cc1)Cc1ccccc1 (some centres not stated) [[(2-Acetylamino-propionylamino)-methyl]-{2-[1-benzyl-2-(4-nitro-phenylamino)-ethylcarbamoyl]-pyrrolidin-1-yl}-phosphinic acid ethyl ester]

Continued, compound first:

Compound | Kd [1] [µM] | IC50 [2] [µM] | Kd [3] [µM]
CC(=O)N[C@@H](C)C(=O)N[C@@H](C)C(=O)N1CCC[C@H]1C(=O)N[C@@H](Cc1ccccc1)C(=O)Nc1ccc([N+](=O)[O-])cc1 [1-[2-(2-Acetylamino-propionylamino)-propionyl]-pyrrolidine-2-carboxylic acid [1-(4-nitro-phenylcarbamoyl)-2-phenyl-ethyl]-amide] (Ac-AAPF-pNA) | 145 | 640 | 
CC(=O)N[C@@H](C)C(=O)NCC(=O)C(=O)N1CCCC1C(=O)N[C@@H](Cc1ccccc1)C(=O)Nc1ccc([N+](=O)[O-])cc1 (some centres not stated) [1-[3-(2-Acetylamino-propionylamino)-2-oxo-propionyl]-pyrrolidine-2-carboxylic acid [1-(4-nitro-phenylcarbamoyl)-2-phenyl-ethyl]-amide] | 127 | 215 | 
C[C@H](NC(=O)CCC(=O)O)C(=O)N[C@@H](C)C(=O)N1CCC[C@H]1C(=O)N[C@@H](Cc1ccccc1)C(=O)Nc1ccc([N+](=O)[O-])cc1 [N-[1-(1-Methyl-2-{2-[1-(4-nitro-phenylcarbamoyl)-2-phenyl-ethylcarbamoyl]-pyrrolidin-1-yl}-2-oxo-ethylcarbamoyl)-ethyl]-succinamic acid] (Suc-AAPF-pNA) | 135 | 540 | 
C[C@H](NC(=O)CCC(=O)O)C(=O)NCC(=O)N1CCC[C@H]1C(=O)N[C@@H](Cc1ccccc1)C(=O)Nc1ccc([N+](=O)[O-])cc1 [N-[1-(2-{2-[1-(4-Nitro-phenylcarbamoyl)-2-phenyl-ethylcarbamoyl]-pyrrolidin-1-yl}-2-oxo-ethylcarbamoyl)-ethyl]-succinamic acid] (Suc-AGPF-pNA) |  | 1450 | 140
